In ChEMBL document CHEMBL3792277, “Structurally Diverse Mitochondrial Branched Chain Aminotransferase (BCATm) Leads with Varying Binding Modes Identified by Fragment Screening” (J Med Chem, 2016):
In brackets after ≈: the same amount, converted by molar mass.

Tests used:
[1] = target: T1, Branched-chain-amino-acid aminotransferase, mitochondrial (Homo sapiens, UniProt O15382); assay: Inhibition of human BCATm incubated for 10 mins by Amplex red- based fluorescence analysis
T1 sequence (O15382 whole entry): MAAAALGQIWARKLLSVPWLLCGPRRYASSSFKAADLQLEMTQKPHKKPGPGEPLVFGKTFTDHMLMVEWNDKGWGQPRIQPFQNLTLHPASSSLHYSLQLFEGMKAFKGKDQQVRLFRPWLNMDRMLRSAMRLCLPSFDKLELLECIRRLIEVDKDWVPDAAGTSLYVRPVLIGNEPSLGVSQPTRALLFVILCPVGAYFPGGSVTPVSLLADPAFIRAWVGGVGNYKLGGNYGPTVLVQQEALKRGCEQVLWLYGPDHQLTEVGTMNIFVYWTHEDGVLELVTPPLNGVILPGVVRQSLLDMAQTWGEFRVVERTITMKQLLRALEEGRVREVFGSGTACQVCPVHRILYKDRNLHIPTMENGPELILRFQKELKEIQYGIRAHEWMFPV

[2] = Solubility of compound in PBS at pH 7.4 after 1 hr by chemiluminiscent nitrogen detection method; assay type: physicochemical

IC50 [1] [µM] | solubility at 1 h [2] [µg/mL] | Compound
7.94 |  | Cc1c(C(=O)Nc2ccccc2)sc2ncnc(O)c12
15.8 | 132 (≈ 496 µM) | NC(=O)c1ccc(N2CCc3ccccc3C2=O)cc1
> 1260 |  | O=C(O)Cc1noc2ccccc12
3.16 | 82 (≈ 309 µM) | O=C(Nc1cnc(-c2cc[nH]n2)nc1)c1ccccc1
50.1 | 13 (≈ 54.1 µM) | NC(=O)c1ccc(NC(=O)c2ccccc2)cc1
158 |  | NC(=O)c1ccccc1-c1ccccc1
> 631 |  | O=C(Nc1ccccc1)c1ccccc1 [N-PHENYLBENZAMIDE]
7.94 |  | Cc1c(C(=O)Nc2ccccc2)sc2ncn(C)c(=O)c12
5.01 | 12 (≈ 45.6 µM) | O=C(Nc1ccc(-c2cc[nH]n2)cc1)c1ccccc1
1000 |  | O=C(Nc1cncnc1)c1ccccc1
2.51 |  | NC(=O)c1ccc(NC(=O)c2ccc(Cl)c(Cl)c2)cc1
2 |  | O=C(O)Cc1ccccc1C(=O)Nc1ccc(-c2cc[nH]n2)cc1
316 |  | O=C(O)Cc1ccccc1C(=O)Nc1ccccc1
200 |  | CS(=O)(=O)c1ccccc1C(=O)Nc1ccccc1
794 |  | NC(=O)NCC(O)c1ccccc1 (configuration not stated)
> 63.1 |  | CCOC(=O)Cc1ccccc1NC(=O)c1sc2nc[nH]c(=O)c2c1C
158 |  | NC(=O)c1sccc1-c1ccccc1

More lines, now with the values behind:

Compound | IC50 [1] [µM] | solubility at 1 h [2] [µg/mL]
Cc1cccc(NC(=O)c2sc3nc[nH]c(=O)c3c2C)c1 | > 63.1 | 
Cc1c(C(=O)NC2CCCC2)sc2ncn(C)c(=O)c12 | > 63.1 | 
Cc1c(C(=O)Nc2ccon2)sc2nc[nH]c(=O)c12 | > 63.1 | 
Cc1ccccc1NC(=O)c1sc2ncnc(O)c2c1C | 50.1 | 
Cc1c(C(=O)Nc2ccccc2S(C)(=O)=O)sc2nc[nH]c(=O)c12 | > 63.1 | 
OCc1ccc2nsnc2c1 | > 1260 | 
Cc1cc2cc(C)c(SCC(=O)O)nc2cc1C | 0.251 | 
O=C(CO)NC1CCCc2ccccc21 (configuration not stated) | > 1260 | 
CC1CNc2c(cccc2S(N)(=O)=O)C1 (configuration not stated) | > 1260 | 
CC(C)C(Sc1ncnc2ccccc12)C(=O)O (configuration not stated) | 7.94 | 
Cc1c(C(=O)O)sc2ncn(C)c(=O)c12 | 63.1 | 
Cc1c(C(=O)N2CCCCC2)sc2ncn(C)c(=O)c12 | > 631 | 
O=C1c2ccccc2CCN1c1ccc(-c2cc[nH]n2)cc1 | 1.58 | 94 (≈ 325 µM)
Cc1ccc(NC(=O)c2sc3nc[nH]c(=O)c3c2C)cc1 | > 63.1 | 
Nc1ccc(Oc2ccccc2)nn1 | 126 | 
